Experimental data: patent publication US10542753B2, “Compositions for improving budbreak and flowering” (Zelam Limited, priority 2015, dated 2020)

How the values were obtained:
[1] = Pahokee muck soil under varying agricultural practices; cited from earlier work
[2] = cited from earlier work
Hayward kiwifruit = assay: Trial 1: cane painting, budbreak and flowering; format: in vivo, Actinidia deliciosa; settings: for Spread of BB: spread = 4x standard deviation; for Advance in Midpoint / Reduction in Spread: vs untreated
Description: A cane painting experiment was performed in a Hayward kiwifruit orchard in the Bay of Plenty New Zealand in 2010 following a winter with average winter chill. Low-medium vigour canes of 1.6 m average length from 36 vines were tagged and either left untreated or painted with one of HC, Examples 1-4 and Comparative Example 1. The date of painting (6-Aug) was 56 days before natural budbreak (DBNB). Budbreak (BBCH stage 9) and flowering (BBCH stage 60) were determined based on the photographs published by Salinero et al., 2009, “Phenological growth stages of kiwifruit (Actinidia deliciosa ‘Hayward’)”, Scientia Horticulturae 121, 27-31, which is hereby incorporated by reference in its entirety. Graphed and tabulated data represent averages of the 36 replicates and are normalised based on the number of winter buds on each cane.
FIG. 1 illustrates the progression of budbreak in Trial 1. FIG. 2 illustrates the progression of flowering in Trial 1. The progress curves depicted in FIGS. 1 and 2 were fitted to a cumulative normal curve to calculate the midpoints of budbreak and flowering (the dates corresponding to a 50% response) and spread of response time (defined as 4× standard deviation) as summarised in Tables 1 and 2.

Gold3 [3] = assay: Trial 5: sprayed trial after poor winter chill (Bay of Plenty); format: in vivo, Actinidia chinensis Planch. var. chinensis 'Zesy002'
Description: (§1) These 2014 sprayed trials were performed in the Bay of Plenty (Trial 5, five replicates, each a bay comprising two vines with ten assessment canes per rep, five on each side of the bay) and Hawkes Bay, NZ (Trial 6, four replicates, each a bay comprising four vines with twenty assessment canes per rep, five from each vine). HC (700 litres/Ha) and Examples 9 and 10 (800 litres/Ha) were sprayed on 16-Aug (37 DBNB, Trial 5) and 11-Aug (30 DBNB, Trial 6). FIG. 7 illustrates the progression of budbreak in Trial 5 and FIG. 8 illustrates the progression of budbreak in Trial 6.
(§2) Under current management practices Gold3 growers require at least about 1.8 single flowers per winter bud (SFWB) to achieve the recommended packout of 17,000 trays/Ha.

Gold3 kiwifruit = assay: Trial 4: cane painting, budbreak and flowering; format: in vivo, Actinidia chinensis Planch. var. chinensis 'Zesy002'; parameters: Spread of BB / Advance in Midpoint / Reduction in Spread: unit not given here; settings: for KFFS: king flowers per floral shoot; for KFWB: king flowers per winter bud; for Advance in Midpoint / Reduction in Spread: vs untreated
Description: This cane painting experiment was performed in a Bay of Plenty orchard in 2013 following a winter with poor chill in the key months of May and June. Low-medium vigour canes typical of the orchard were painted with either HC or Example 9 on 13-Aug and 20-Aug, 34 and 27 days before natural budbreak which occurred on 16-Sep. […] FIG. 5 illustrates the progression of budbreak and FIG. 6 illustrates the progress of flowering in Trial 4.

Psa = assay: Trial 3: whole-vine spray in Psa-infected orchard, Psa leaf spotting; format: in vivo, Hayward kiwifruit vines; settings: for % Incidence: Psa leaf spotting
Description: A trial in which whole Hayward kiwifruit vines were sprayed was established in the Bay of Plenty in 2013. There were twelve replicates and two sets of untreated vines. HC (700 litres/Ha) and the composition of Example 8 (800 litres/Ha) were applied on three dates using a boom sprayer designed to produce spray deposition typical of an orchard air blast sprayer. Of particular interest in this trial was the prevalence of Psa leaf spotting that became evident in late spring, particularly in the early HC-sprayed vines. Vines were assessed for Psa leaf spotting by rating 40 randomly selected leaves (10 on each side of the two leaders that made up each vine) on a 1-5 scale (Table 4).

Hayward kiwifruit vines = assay: Trial 2: cane painting, salicylic acid dose-response, budbreak; format: in vivo, Actinidia deliciosa
Description: A cane painting experiment was performed in 2012 in a Hayward kiwifruit orchard in Taranaki, New Zealand. Canes of 1.2 m average length from 33 vines were tagged and either left untreated or painted with one of HC, Examples 5-8 and Comparative Examples 2 and 3 on 9-Aug, 50 DBNB (28-Sep). Midpoints and spread were calculated for budbreak (Table 3) but there were insufficient data to perform the calculations for flowering. […] FIG. 3 illustrates the progression of budbreak in Trial 2. FIG. 4 illustrates the progress of flowering in Trial 2.

Granny Smith Apples = assay: Trial 8: sprayed trees, budbreak, flowering and fruit set on fruiting spurs; format: in vivo
Description: Trial 8: Use on Granny Smith Apples was evaluated in New Plymouth, New Zealand following a poor winter chill in 2013. Treatments were applied on 9 Aug. 2013 at 200 L/Ha using a manual backpack sprayer in a replicated trial (4 replications of two tree plots).

Gold3 [4] = assay: Trial 6: sprayed trial after good winter chill (Hawkes Bay); format: in vivo, Actinidia chinensis Planch. var. chinensis 'Zesy002'
Description: as §1, §2

[5] = Trial 5, Bay of Plenty, poor winter chill

SMILES: O=C(O)c1ccccc1O [Salicylic acid, salicylic acid]
- Biodegradation [1]: rapid
- Solubility in ethanol ([2]; 21° C.): 34.87 % w/w
- Solubility in propanol ([2]; 21° C.): 27.36 % w/w
- Solubility in benzene ([2]; 25° C.): 0.775 % w/w

SMILES: N#CN [HC, hydrogen cyanamide]
- Spread of BB (Hayward kiwifruit; Table 2, flowering): 7
- Advance in Midpoint (Hayward kiwifruit; Table 2, flowering): 6
- Reduction in Spread (Hayward kiwifruit; Table 2, flowering): 9
- Spread of BB (Hayward kiwifruit; budbreak): 17
- Advance in Midpoint (Hayward kiwifruit; budbreak): 16
- Reduction in Spread (Hayward kiwifruit; budbreak): 32
- flower numbers (in words) (Gold3 [3]; [5]): excessive flower numbers
- frequency of double and triple flowers / laterals (in words) (Gold3 [3]; [5]): nearly doubled
- % Double flowers (Gold3 [3]; in vivo): 14.4%
- % Laterals (Gold3 [3]; in vivo): 18.7%
- % Triple flowers (Gold3 [3]; in vivo): 4.3%
- KFWB (Gold3 [3]; king flowers per winter bud): 3.1
- SFWB (Gold3 [3]; single flowers per winter bud): 2.5
- % Budbreak (Gold3 [3]; sprayed 16-Aug (37 DBNB)): 56.9%
- frequency of lateral flowers (doubles and triples) (in words) (Gold3 kiwifruit; Trial 4): increased the frequency of lateral flowers
- king flowers per winter bud (KFWB) (in words) (Gold3 kiwifruit; Trial 4, vs untreated): large increases
- KFFS (Gold3 kiwifruit; painted 27 DBNB (20-Aug)): 2.35
- KFFS (Gold3 kiwifruit; painted 34 DBNB (13-Aug)): 2.90
- KFWB (Gold3 kiwifruit; painted 27 DBNB (20-Aug)): 1.19
- KFWB (Gold3 kiwifruit; painted 34 DBNB (13-Aug)): 1.48
- % Budbreak (Gold3 kiwifruit; painted 27 DBNB (20-Aug)): 72.1%
- % Deformed (Gold3 kiwifruit; painted 27 DBNB (20-Aug)): 0.2%
- % Laterals (Gold3 kiwifruit; painted 27 DBNB (20-Aug)): 1.8%
- Floral shoots (Gold3 kiwifruit; painted 27 DBNB (20-Aug)): 71%
- Spread of BB (Gold3 kiwifruit; painted 27 DBNB (20-Aug)): 24
- Advance in Midpoint (Gold3 kiwifruit; painted 27 DBNB (20-Aug)): 15
- Reduction in Spread (Gold3 kiwifruit; painted 27 DBNB (20-Aug)): 17
- % Budbreak (Gold3 kiwifruit; painted 34 DBNB (13-Aug)): 64.5%
- % Deformed (Gold3 kiwifruit; painted 34 DBNB (13-Aug)): 1.7%
- % Laterals (Gold3 kiwifruit; painted 34 DBNB (13-Aug)): 9.9%
- Floral shoots (Gold3 kiwifruit; painted 34 DBNB (13-Aug)): 83%
- Spread of BB (Gold3 kiwifruit; painted 34 DBNB (13-Aug)): 12
- Advance in Midpoint (Gold3 kiwifruit; painted 34 DBNB (13-Aug)): 19
- Reduction in Spread (Gold3 kiwifruit; painted 34 DBNB (13-Aug)): 30
- change in Psa leaf spotting (ANOVA, in words) (Psa; HC after the first two applications, Example 8 at all application dates): significant increase
- % Incidence (Psa; applied 15-Aug (46 DBNB)): 51.5 a %
- % Incidence (Psa; applied 24-Aug (37 DBNB)): 21.7 b %
- % Incidence (Psa; applied 30-Aug (31 DBNB)): 18.3 bc %
- Leaf spotting score (Psa; applied 15-Aug (46 DBNB), 40 leaves rated on 1-5 scale): 1.15 a
- Leaf spotting score (Psa; applied 24-Aug (37 DBNB)): 0.42 b
- Leaf spotting score (Psa; applied 30-Aug (31 DBNB)): 0.31 bc
- budbreak response (in words) (Hayward kiwifruit vines; Trial 2, FIG. 3, vs untreated): improved considerably
- Spread of BB (Hayward kiwifruit vines; budbreak): 19
- Advance in Midpoint (Hayward kiwifruit vines; budbreak, vs untreated): 12
- Reduction in Spread (Hayward kiwifruit vines; budbreak, vs untreated): 7
- % Budbreak 28 DAA (Granny Smith Apples; 28 DAA): 14%
- % Budbreak 39 DAA (Granny Smith Apples; 39 DAA): 39%
- % Budbreak 47 DAA (Granny Smith Apples; 47 DAA): 34%
- % Flowering 54 DAA (Granny Smith Apples; 54 DAA): 66%
- % Fruit set 74 DAA (Granny Smith Apples; 74 DAA): 16%
- frequency of laterals (in words) (Gold3 [4]; Trial 6, Hawkes Bay, good winter chill): further increased
- % Laterals (Gold3 [4]; in vivo): 31.2%
- KFWB (Gold3 [4]; king flowers per winter bud): 2.61
- SFWB (Gold3 [4]; single flowers per winter bud): 1.8
- % Budbreak (Gold3 [4]; sprayed 11-Aug (30 DBNB)): 55.9%
